pIC50: −log10 of the molar value.
Assays:
Assay type in all cases: cell-based
[1] = system: A549 lung cancer cells; assay: Cancer cell survival (CellTiter-Glo), A549; details: 72 h
Experimental: (§1) The cells were prepared as follows. Cells were harvested during logarithmic growth, counted, and adjusted to 4.44×10^4 cells/mL with culture media. 90 μL of suspended cells were added to wells of 96-well plates for a final cell count of 4×10^3 cells/well. The plates were incubated overnight at 37 C with 5% CO2 overnight.
(§2) The test compounds were assayed as follows. Compound solutions were mixed at 10× final concentrations in cell media: 1 μM-10 mM (fatty acids) or 100 nM-1 mM (all other compounds). […] of solution was added to each well of cells in triplicate for each concentration. Well plates were incubated for 72 h at 37 C with 5% CO2 and then assayed with CellTiter-Glo by adding 50 μL of CTG solution to each well. Cells were lysed by shaking on an orbital shaker for 5 min. Plates were incubated at room temperature for 20 min and then each well's luminescence was measured. The surviving percentage of cells was determined as:
(§3) Survival %=(LumTest article−LumMedium control)/(LumNone treated−LumMedium control)[…]
(§4) Cytotoxicity was assessed at nine concentration levels for each compound and the 50% inhibition concentration (IC50) determined for each compound.

[2] = system: PC-3 prostate cancer cells; assay: Cancer cell survival (CellTiter-Glo), PC-3; details: PC-3 cells, 72 h
Experimental: as §1, §2, §3, §4

[3] = system: T24 bladder cancer cells; assay: Cancer cell survival (CellTiter-Glo), T24; details: 72 h
Experimental: as §1, §2, §3
Efficacy was assessed at nine concentration levels for each compound and the 50% inhibition concentration (IC50) determined for each compound.

[4] = system: AGS stomach cancer cells; assay: Cancer cell survival (CellTiter-Glo), AGS; set-up: Cell survival at given concentration: unit not given here
Experimental: as §1, §2, §3, §4

[5] = system: Daudi lymphoma cancer cells; assay: Cancer cell survival (CellTiter-Glo), Daudi; details: 72 h
Experimental: as §1, §2, §3
Activity was assessed at nine concentration levels for each compound and the 50% inhibition concentration (IC50) determined for each compound.

[6] = system: MCF7 breast cancer cells; assay: Cancer cell survival (CellTiter-Glo), MCF7; details: 72 h
Experimental: as §1, §2, §3, §4

[7] = system: A-431 skin cancer cells; assay: Cancer cell survival (CellTiter-Glo), A-431; set-up: Cell survival at given concentration: unit not given here; details: A-431 cells, 72 h
Experimental: as §1, §2, §3, §4

[8] = system: HCT 116 colorectal cancer cells; assay: Cancer cell survival (CellTiter-Glo), HCT 116; details: HCT 116 cells, 72 h
Experimental: as §1, §2, §3, §4

In the case of `CC(=O)O` [acetate], the “Cell survival at given concentration” value ([1]; 1 μM, Table 7.2) was 1.00, the “Cell survival at given concentration” value ([1]; 3 μM, Table 7.2) was 1.01 and the “Cell survival at given concentration” value ([1]; 10 μM, Table 7.2) was 1.00. For the same compound, the “Cell survival at given concentration” value ([1]; 32 μM, Table 7.2) was 1.06, the “Cell survival at given concentration” value ([1]; 100 μM, Table 7.2) was 1.09 and the “Cell survival at given concentration” value ([1]; 317 μM) was 1.02. For the same compound, the “Cell survival at given concentration” value ([1]; 1 mM) was 1.03, the “Cell survival at given concentration” value ([1]; 3 mM) was 1.03 and the “Cell survival at given concentration” value ([1]; 10 mM) was 1.00. The “Cell survival at given concentration” value ([2]; 1 μM, Table 8.2) was 1.05, the “Cell survival at given concentration” value ([2]; 3 μM, Table 8.2) was 1.00 and the “Cell survival at given concentration” value ([2]; 10 μM, Table 8.2) was 1.02. The “Cell survival at given concentration” value ([2]; 32 μM, Table 8.2) was 1.03, the “Cell survival at given concentration” value ([2]; 100 μM, Table 8.2) was 1.07 and the “Cell survival at given concentration” value ([2]; 317 μM) was 1.05. The “Cell survival at given concentration” value ([2]; 1 mM) was 1.01, the “Cell survival at given concentration” value ([2]; 3 mM) was 1.00 and the “Cell survival at given concentration” value ([2]; 10 mM) was 0.88. The pIC50 ([2]; Table 8.2) was less than 2.00, the “Cell survival at given concentration” value ([3]; 1 μM, Table 3.2) was 0.97 and the “Cell survival at given concentration” value ([3]; 3 μM, Table 3.2) was 0.97. The “Cell survival at given concentration” value ([3]; 10 μM, Table 3.2) was 1.04, the “Cell survival at given concentration” value ([3]; 32 μM, Table 3.2) was 0.97 and the “Cell survival at given concentration” value ([3]; 100 μM, Table 3.2) was 1.00. For the same compound, the “Cell survival at given concentration” value ([3]; 317 μM) was 1.01, the “Cell survival at given concentration” value ([3]; 1 mM) was 0.99 and the “Cell survival at given concentration” value ([3]; 3 mM) was 0.97. For the same compound, the “Cell survival at given concentration” value ([3]; 10 mM) was 0.91, the “Cell survival at given concentration” value ([4]; 1 μM, Table 10.2) was 0.99 and the “Cell survival at given concentration” value ([4]; 3 μM, Table 10.2) was 1.00. The “Cell survival at given concentration” value ([4]; 10 μM, Table 10.2) was 1.02, the “Cell survival at given concentration” value ([4]; 32 μM, Table 10.2) was 1.03 and the “Cell survival at given concentration” value ([4]; 100 μM, Table 10.2) was 1.03. For the same compound, the “Cell survival at given concentration” value ([4]; 317 μM) was 1.03, the “Cell survival at given concentration” value ([4]; 1 mM) was 1.02 and the “Cell survival at given concentration” value ([4]; 3 mM) was 1.03. The “Cell survival at given concentration” value ([4]; 10 mM) was 1.02, the “Cell survival at given concentration” value ([5]; 1 μM, Table 4.2) was 1.00 and the “Cell survival at given concentration” value ([5]; 3 μM, Table 4.2) was 0.99. For the same compound, the “Cell survival at given concentration” value ([5]; 10 μM, Table 4.2) was 0.99, the “Cell survival at given concentration” value ([5]; 32 μM, Table 4.2) was 1.01 and the “Cell survival at given concentration” value ([5]; 100 μM, Table 4.2) was 1.02. For the same compound, the “Cell survival at given concentration” value ([5]; 317 μM) was 1.02, the “Cell survival at given concentration” value ([5]; 1 mM) was 1.01 and the “Cell survival at given concentration” value ([5]; 3 mM) was 0.97. For the same compound, the “Cell survival at given concentration” value ([5]; 10 mM) was 0.75, the “Cell survival at given concentration” value ([6]; 1 μM, Table 5.2) was 1.01 and the “Cell survival at given concentration” value ([6]; 3 μM, Table 5.2) was 1.02. The “Cell survival at given concentration” value ([6]; 10 μM, Table 5.2) was 0.98, the “Cell survival at given concentration” value ([6]; 32 μM, Table 5.2) was 1.03 and the “Cell survival at given concentration” value ([6]; 100 μM, Table 5.2) was 1.02. For the same compound, the “Cell survival at given concentration” value ([6]; 317 μM) was 1.04, the “Cell survival at given concentration” value ([6]; 1 mM) was 0.99 and the “Cell survival at given concentration” value ([6]; 3 mM) was 0.99. For the same compound, the “Cell survival at given concentration” value ([6]; 10 mM) was 0.91, the “Cell survival at given concentration” value ([7]; 1 μM, Table 9.2) was 1.02 and the “Cell survival at given concentration” value ([7]; 3 μM, Table 9.2) was 1.03. For the same compound, the “Cell survival at given concentration” value ([7]; 10 μM, Table 9.2) was 1.06, the “Cell survival at given concentration” value ([7]; 32 μM, Table 9.2) was 1.03 and the “Cell survival at given concentration” value ([7]; 100 μM, Table 9.2) was 1.05. The “Cell survival at given concentration” value ([7]; 317 μM) was 1.05, the “Cell survival at given concentration” value ([7]; 1 mM) was 1.05 and the “Cell survival at given concentration” value ([7]; 3 mM) was 1.02. For the same compound, the “Cell survival at given concentration” value ([7]; 10 mM) was 0.99, the “Cell survival at given concentration” value ([8]; 1 μM, Table 6.2) was 1.01 and the “Cell survival at given concentration” value ([8]; 3 μM, Table 6.2) was 1.03. The “Cell survival at given concentration” value ([8]; 10 μM, Table 6.2) was 1.03, the “Cell survival at given concentration” value ([8]; 32 μM, Table 6.2) was 1.03 and the “Cell survival at given concentration” value ([8]; 100 μM, Table 6.2) was 1.06. The “Cell survival at given concentration” value ([8]; 317 μM) was 1.02, the “Cell survival at given concentration” value ([8]; 1 mM) was 1.02 and the “Cell survival at given concentration” value ([8]; 3 mM) was 1.00. The “Cell survival at given concentration” value ([8]; 10 mM) was 0.84 and the pIC50 ([8]; Table 6.2) was less than 2.00.

— patent US20210085640A1, “ACYLATED CATECHIN POLYPHENOLS AND METHODS OF THEIR USE FOR THE TREATMENT OF CANCER” (Flagship Pioneering Innovations V, Inc., priority 2018, published 2021)
